Measurements published in patent US8143374B2, “Polypeptide derivatives of parathyroid hormone (PTH)” (The General Hospital Corporation, priority 2006, dated 2012).
Read-outs that look alike come from different tables or passages of the source. Where a SMILES comes first, the peptide text is derived from it. Where no end group is shown, it is not given here. [ ]: non-standard residue; d: D form. Apa = (S)-2-amino-4[(2-amino)pyrimidinyl]methylalanine; Phe(4-guanidino) = N=C(N)Nc1ccc(C[C@H](N)C(=O)O)cc1; Cha = N[C@@H](CC1CCCCC1)C(=O)O; Orn = NCCC[C@H](N)C(=O)O

Legend:
[1] = Circular dichroism spectroscopy, helical residues per peptide chain; assay type: physicochemical; settings: calculated from [θ]222
How it was run: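 CD spectra recorded at 20 °C, four scans averaged; peptide concentration checked by A280 with the single-Trp extinction coefficient of 5700 M^−1. Helical residues per chain calculated as −[θ]222×30/28,000 from mean residue ellipticity at 222 nm.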

wild-type human PTHR = biological target: T1, wild-type human PTHR (Homo sapiens, UniProt Q03431); assay: Competition binding in intact HKRK-B7 cells with 125I-PTH(1-34) tracer; settings: for IC50: intact HKRK-B7 cells, read-out: PTHR-WT (HKRK-B7 cells) IC50; for reduction (alteration) of apparent binding affinity for the intact PTHR relative to parent peptide / enhancement in apparent PTHR-binding affinity relative to parent peptide / detectable binding to the intact PTHR (in words): HKRK-B7 cells; for reduction (alteration) of apparent binding affinity for the intact PTHR relative to parent peptide: versus the respective parent peptide; for enhancement in apparent PTHR-binding affinity relative to parent peptide: versus PTH(1-31)NH2
T1 construct: expressed in transfected cells
T1 sequence (Q03431 27-593): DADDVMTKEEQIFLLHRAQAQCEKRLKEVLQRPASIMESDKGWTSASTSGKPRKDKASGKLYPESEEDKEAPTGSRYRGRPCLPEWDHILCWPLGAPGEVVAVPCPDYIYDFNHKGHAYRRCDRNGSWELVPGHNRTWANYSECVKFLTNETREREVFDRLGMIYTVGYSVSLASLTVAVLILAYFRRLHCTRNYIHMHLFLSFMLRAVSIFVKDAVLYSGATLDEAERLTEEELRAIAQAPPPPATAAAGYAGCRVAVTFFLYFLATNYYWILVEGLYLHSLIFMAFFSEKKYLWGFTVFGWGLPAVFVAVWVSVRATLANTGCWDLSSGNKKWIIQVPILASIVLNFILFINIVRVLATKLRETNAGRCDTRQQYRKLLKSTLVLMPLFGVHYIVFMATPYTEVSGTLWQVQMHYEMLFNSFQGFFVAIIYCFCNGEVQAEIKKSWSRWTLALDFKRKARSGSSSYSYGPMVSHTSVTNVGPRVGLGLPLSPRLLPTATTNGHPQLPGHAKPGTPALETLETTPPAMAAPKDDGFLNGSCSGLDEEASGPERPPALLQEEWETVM
Procedure: Cell Culture—Cells were cultured at 37° C. in a humidified atmosphere containing 5% CO2 in Dulbecco's modified Eagle's medium (DMEM), supplemented with 10% fetal bovine serum (HyClone, Logan Utah), 100 units/ml penicillin G, and 100 ug/ml streptomycin penicillin G/streptomycin (Invitrogen Corp. Carlsbad, Calif.). For binding and cAMP studies performed with the intact PTHR, the HKRK-B7 and ROS 17/2.8 cell lines were used. HKRK-B7 cells are derived from the porcine kidney cell line LLC-PK1 and express, via stable DNA transfection, the wild-type human PTHR at an approximate surface density of 950,000 PTH-binding sites per cell. ROS 17/2.8 cells are rat osteosarcoma cells and express the endogenous PTHR at an approximate surface density of 80,000 PTH-binding sites per cell. The cells were plated and assayed in 24-well plates.
Receptor binding—Binding to the wild-type human PTHR in intact HKRK-B7 cells and ROS 17/2.8 cells was assessed using ^125I-PTH(1-34) as a tracer radioligand, as described (Shimizu, M., (2001) Endocrinology 142:3068-3074). In brief, the cells in 24-well plates (about 500,000 cells per well) were incubated in binding buffer containing radioligand (about 100,000 cpm per well) with or without unlabeled peptide ligand (3×10^−9 to 1×10^−5 M) for four hours at 15° C. The binding mixture was then removed by aspiration, the cells were rinsed three times with binding buffer, lysed in 1 M NaOH, and the entire lysate was counted for gamma-irradiation in a gamma counter. Binding to PTHR-delNt in COS-7 cell membranes was assessed in 96-well, vacuum filtration plates (Multiscreen-Durapore HV, […] membranes, Millipore Corp., Millford, Mass.) using ^125I-[Aib^1,3,M]PTH(1-15)NH2 as a tracer radioligand, as described (Dean, T., (2006) Mol Endocrinol 20:931-942). In brief, cell membranes (20 μg/well) were incubated in membrane binding buffer containing radioligand (30,000 cpm/well) with or without unlabeled peptide ligand (3×10^−9 to 1×10^−5 M) for 90 minutes at 21° C. The plates were then subject to rapid vacuum filtration, the filters were washed once with buffer, detached from the plate and counted for gamma-irradiation in a gamma counter. Non-specific binding was defined as the binding observed in the presence of 1×10^−6 M PTH(1-31)NH2 for HKRK-B7 and ROS 17/2.8 cells, and 1×10^−6 M [Aib^1,3,M]PTH(1-15)NH2 for PTHR-delNt. Specifically bound radioactivity was calculated as a percentage of the radioactivity specifically bound in the absence of competing ligand.
Data and statistical calculations—Data were processed for curve fitting and derivation of IC50 and EC50 values using least-squares, nonlinear regression analysis and the four parameter logistic equation: […], where y, ymin and ymax are the observed, minimum and maximum response values, respectively; x is ligand concentration, and n is the slope factor. In cases where incomplete inhibition of binding occurred: i.e. with certain PTH(1-31) analogs binding to PTHR-delNt, the curve fits and IC50 values were derived by extrapolating the data to the maximum inhibition attained by [Aib^1,3,M]PTH(1-15)NH2. Paired data sets were statistically compared using a two-tailed Student's t-test, assuming unequal variances for the two sets.

[2] = hPTH(1-31)NH2 analogs, 125I-[Nle8,21,Tyr34]ratPTH(1-34)NH2 tracer
[3] = [Ala1,Arg19]hPTH(1-31)NH2 analogs

| Molecule | CD helical residues ([1]; hPTH(1-31)NH2 analogs) | IC50 (wild-type human PTHR; [2]) [nM] | reduction (alteration) of apparent binding affinity for the intact PTHR relative to parent peptide (wild-type human PTHR) | further results |
| --- | --- | --- | --- | --- |
| SVSEIQLMHNLGKHLNSMERVEWLRAKLQDV-NH2 [Lys^26→Ala] | 7 | 125 ± 8 |  |  |
| SVSEIQLMHNLGKHLNSMERVEWLRKKAQDV-NH2 [Leu^28→Ala] | 8 |  | three- to four-fold |  |
| AVSEIQLMHNLGKHLNSMRRVEWLRKELQDV-NH2 [Lys^27→Glu] |  |  | two- to five-fold reductions | CD helical residues [1, 3]: 5 |
| SVSEIQLMHNLGKHLNSMARVEWLRKKLQDV-NH2 [Glu^19→Ala] | 9 | 49 ± 11 |  | enhancement in apparent PTHR-binding affinity relative to parent peptide (wild-type human PTHR): ≦two-fold |
| CC[C@H](C)[C@H](NC(=O)[C@H](CCC(=O)O)NC(=O)[C@H](CO)NC(=O)[C@@H](NC(=O)[C@H](C)N)C(C)C)C(=O)N[C@@H](CCC(N)=O)C(=O)N[C@@H](CC(C)C)C(=O)N[C@@H](CCSC)C(=O)N[C@@H](Cc1c[nH]cn1)C(=O)N[C@@H](CC(N)=O)C(=O)N[C@@H](CC(C)C)C(=O)NCC(=O)N[C@@H](CCCCN)C(=O)N[C@@H](Cc1c[nH]cn1)C(=O)N[C@@H](CC(C)C)C(=O)N[C@@H](CC(N)=O)C(=O)N[C@@H](CO)C(=O)N[C@@H](CCSC)C(=O)N[C@@H](CCCNC(=N)N)C(=O)N[C@@H](CC1CCCCC1)C(=O)N[C@H](C(=O)N[C@@H](CCC(=O)O)C(=O)N[C@@H](Cc1c[nH]c2ccccc12)C(=O)N[C@@H](CC(C)C)C(=O)N[C@@H](CCCNC(=N)N)C(=O)N[C@@H](CCCCN)C(=O)N[C@@H](CCCCN)C(=O)N[C@@H](CC(C)C)C(=O)N[C@@H](CCC(N)=O)C(=O)N[C@@H](CC(=O)O)C(=O)N[C@H](C(N)=O)C(C)C)C(C)C [Arg^20→Cha, AlaValSerGluIleGlnLeuMetHisAsnLeuGlyLysHisLeuAsnSerMetArgChaValGluTrpLeuArgLysLysLeuGlnAspVal] (H-AVSEIQLMHNLGKHLNSMR[Cha]VEWLRKKLQDV-NH2; N-terminus assumed) |  |  | 120 fold | CD helical residues [1, 3]: 16 |
| SVSEIQLMHNLGKHLNSMERVEWLRKKLADV-NH2 [Gln^29→Ala] | 9 |  |  | enhancement in apparent PTHR-binding affinity relative to parent peptide (wild-type human PTHR): ≦two-fold |
| AVSEIQLMHNLGKHLNSMRRVEWLEKKLQDV-NH2 [Arg^25→Glu] |  |  | two- to five-fold reductions | CD helical residues [1, 3]: 5 |
| SVSEIQLMHNLGKHLNSMRRVAWLRKKLQDV-NH2 [Glu^19,22→Arg,Ala] | 8 | 54 ± 13 |  | enhancement in apparent PTHR-binding affinity relative to parent peptide (wild-type human PTHR): did not lead to further improvements |
| SVSEIQLMHNLGKHLNSMEQVEWLRKKLQDV-NH2 [Arg^20→Gln] | 7 | > 10000 |  | detectable binding to the intact PTHR (in words) (wild-type human PTHR): complete loss of detectable binding affinity |
| SVSEIQLMHNLGKHLNSMARVAWLRKKLQDV-NH2 [Glu^19,22→Ala,Ala] | 9 | 49 ± 9 |  | enhancement in apparent PTHR-binding affinity relative to parent peptide (wild-type human PTHR): did not lead to further improvements |
| SVSEIQLMHNLGKHLNSMERVEWLRKALQDV-NH2 [Lys^27→Ala] | 9 |  | three- to four-fold |  |
| AVSEIQLMHNLGKHLNSMRRVEWERKKLQDV-NH2 [Leu^24→Glu] |  |  |  | CD helical residues [1, 3]: 6; detectable binding to the intact PTHR (in words) (wild-type human PTHR): abolished detectable binding; IC50 (wild-type human PTHR; [Ala1,Arg19]hPTH(1-31)NH2 analogs, 125I-[Nle8,21,Tyr34]rPTH(1-34)NH2 tracer): > 10000 nM |
| CC[C@H](C)[C@H](NC(=O)[C@H](CCC(=O)O)NC(=O)[C@H](CO)NC(=O)[C@@H](NC(=O)[C@@H](N)CO)C(C)C)C(=O)N[C@@H](CCC(N)=O)C(=O)N[C@@H](CC(C)C)C(=O)N[C@@H](CCSC)C(=O)N[C@@H](Cc1c[nH]cn1)C(=O)N[C@@H](CC(N)=O)C(=O)N[C@@H](CC(C)C)C(=O)NCC(=O)N[C@@H](CCCCN)C(=O)N[C@@H](Cc1c[nH]cn1)C(=O)N[C@@H](CC(C)C)C(=O)N[C@@H](CC(N)=O)C(=O)N[C@@H](CO)C(=O)N[C@@H](CCSC)C(=O)N[C@@H](CCC(=O)O)C(=O)N[C@@H](CCCN)C(=O)N[C@H](C(=O)N[C@@H](CCC(=O)O)C(=O)N[C@@H](Cc1c[nH]c2ccccc12)C(=O)N[C@@H](CC(C)C)C(=O)N[C@@H](CCCNC(=N)N)C(=O)N[C@@H](CCCCN)C(=O)N[C@@H](CCCCN)C(=O)N[C@@H](CC(C)C)C(=O)N[C@@H](CCC(N)=O)C(=O)N[C@@H](CC(=O)O)C(=O)N[C@H](C(N)=O)C(C)C)C(C)C [Arg^20→Orn] (H-SVSEIQLMHNLGKHLNSME[Orn]VEWLRKKLQDV-NH2; N-terminus assumed) | 6 | > 10000 |  |  |
| Arg^20→Apa: hPTH(1-31)NH2 analog with Arg^20 replaced by (S)-2-amino-4[(2-amino)pyrimidinyl]methylalanine (Apa) (SVSEIQLMHNLGKHLNSME[Apa]VEWLRKKLQDV-NH2) |  | > 10000 |  | detectable binding to the intact PTHR (in words) (wild-type human PTHR): complete loss of detectable binding affinity |
| CC[C@H](C)[C@H](NC(=O)[C@H](CCC(=O)O)NC(=O)[C@H](CO)NC(=O)[C@@H](NC(=O)[C@@H](N)CO)C(C)C)C(=O)N[C@@H](CCC(N)=O)C(=O)N[C@@H](CC(C)C)C(=O)N[C@@H](CCSC)C(=O)N[C@@H](Cc1c[nH]cn1)C(=O)N[C@@H](CC(N)=O)C(=O)N[C@@H](CC(C)C)C(=O)NCC(=O)N[C@@H](CCCCN)C(=O)N[C@@H](Cc1c[nH]cn1)C(=O)N[C@@H](CC(C)C)C(=O)N[C@@H](CC(N)=O)C(=O)N[C@@H](CO)C(=O)N[C@@H](CCSC)C(=O)N[C@@H](CCC(=O)O)C(=O)N[C@@H](Cc1ccc(NC(=N)N)cc1)C(=O)N[C@H](C(=O)N[C@@H](CCC(=O)O)C(=O)N[C@@H](Cc1c[nH]c2ccccc12)C(=O)N[C@@H](CC(C)C)C(=O)N[C@@H](CCCNC(=N)N)C(=O)N[C@@H](CCCCN)C(=O)N[C@@H](CCCCN)C(=O)N[C@@H](CC(C)C)C(=O)N[C@@H](CCC(N)=O)C(=O)N[C@@H](CC(=O)O)C(=O)N[C@H](C(N)=O)C(C)C)C(C)C [Arg^20→Gph] (H-SVSEIQLMHNLGKHLNSME[Phe(4-guanidino)]VEWLRKKLQDV-NH2; N-terminus assumed) |  | > 10000 |  | detectable binding to the intact PTHR (in words) (wild-type human PTHR): complete loss of detectable binding affinity |
